Source: patent publication US4816447A, “Anti-viral guanine compounds” (priority 1984, dated 1989)

Experiments:
[1] = test system: HSV-2; experiment: Vaginal HSV-2 infection in mice, oral treatment (Table VI); type: in vivo, HSV-2; ICR/Ha mice; settings: Human alphaherpesvirus 2; vaginal infection, oral treatment; read-out: Min. Effective Dose
[2] = test system: HSV-1; experiment: Intraperitoneal HSV-1 infection in mice, oral treatment (Table VI); type: in vivo, HSV-1; ICR/Ha mice; settings: Human alphaherpesvirus 1; intraperitoneal infection, oral treatment; read-out: Min. Effective Dose
[3] = test system: Herpes simplex virus type 2 (Strain Curtis); experiment: Vaginal Herpes simplex virus type 2 infection in mice, oral treatment (Table XII); type: in vivo, Herpes simplex virus type 2; ICR/Ha female mice; settings: for Percent Survival: at 19 days
Experimental: Groups of 10 animals were treated twice daily for ten days by oral gavage using acycloquanosine or the compound of formula II at final daily doses of 50, 12.5, 3.1, 0.8 or 0.2 mg/kg starting immediately following infection. The average number of days to infection and the average days of survival were determined for each group and compared to an infected, placebo-treated group.

[4] = test system: HSV-1 PAA ®1; settings: HSV-1 PAA R1
[5] = test system: Herpes simplex virus type I (HSV-1), strain Schooler; experiment: Treatment of Herpes simplex virus infection in mice, repeat experiment (Table III); type: in vivo, HSV-1; ICR/Ha mice; settings: for Percent Survival: at 15 days
Experimental: Twenty gram ICR/Ha mice were injected intraperitoneally (ip) with 0.5 ml of a 10^-5 dilution of a stock preparation of Herpes simplex virus type I (HSV-1), strain Schooler. This virus challenge infected each animal with approximately 100 LD50. […] The placebo group was composed of 45 animals. All compounds were solubilized in physiological saline, pH 11.5.

Question: For Nc1nc2c(ncn2COCCO)c(=O)[nH]1 [Acycloguanosine, 9-(2-hydroxyethoxymethyl)guanine, reference compound], which minimal effective dose [1] is on record?
Answer: The minimal effective dose was 12.5 to 50 mg/kg/day.

Question: What about the minimal effective dose [2] of the same compound?
Answer: Its minimal effective dose is 12.5 to 50 mg/kg/day.

Question: What about the “Avg. Survival Time” value ([3]; 0.2 mg/kg/day oral) of the same compound?
Answer: Its value is 8.8 days.

Question: What about the “Percent Survival” value ([3]; 0.2 mg/kg/day oral) of the same compound?
Answer: Its value is 0%.

Question: What about the “Percent Survival” value ([3]; 0.8 mg/kg/day oral) of the same compound?
Answer: Its value is 10%.

Question: What about the “Percent Survival” value ([3]; 3.1 mg/kg/day oral) of the same compound?
Answer: The value was 20%.

Question: And the “Avg. Survival Time” value ([3]; 12.5 mg/kg/day oral)?
Answer: Its value is 14.1 days.

Question: And the “Percent Survival” value ([3]; 12.5 mg/kg/day oral)?
Answer: The value was 40%.

Question: And the “number of days to infection vs placebo” value ([3]; 50 mg/kg and 12.5 mg/kg)?
Answer: Its value is “statistically significant increases in the number of days to infection”.

Question: What about the “Avg. Survival Time” value ([3]; 50 mg/kg/day oral) of the same compound?
Answer: Its value is 17.6 days.

Question: And the “Percent Survival” value ([3]; 50 mg/kg/day oral)?
Answer: The value was 60%.

Question: What about the “survival time vs placebo” value ([3]; 50 and 12.5 mg/kg) of the same compound?
Answer: The value was “similarly effective”.

Question: And the survival vs placebo ([3]; only 50 mg/kg)?
Answer: The survival vs placebo was “statistically significant enhanced survival”.

Question: What about the “Sensitivity (S) or Resistance (R)” value [4] of the same compound?
Answer: The value was “R”.

Question: What about the “Avg. Survival Time” value ([5]; 12.5 mg/kg/day s.c.) of the same compound?
Answer: Its value is 7.0 days.

Question: What about the “Percent Survival” value ([5]; 12.5 mg/kg/day s.c.) of the same compound?
Answer: The value was 6%.

Question: What about the “Avg. Survival Time” value ([5]; 50 mg/kg/day s.c.) of the same compound?
Answer: The value was 7.8 days.

Question: And the “Percent Survival” value ([5]; 50 mg/kg/day s.c.)?
Answer: The value was 0%.

Question: What about the “Avg. Survival Time” value ([5]; 100 mg/kg/day s.c.) of the same compound?
Answer: Its value is 7.8 days.

Question: And the “Percent Survival” value ([5]; 100 mg/kg/day s.c.)?
Answer: The value was 10%.
